Results reported in patent publication US10100019B2.
Structures can show the parent of a compound that is named as a salt. Where two headings read alike, the source gives them in different places.

Experiments:
[1] = test system: H3122 cells; test: Cytotoxicity in non-small cell lung cancer cell line H3122 (SRB); type: cell-based, human
Procedure: Particularly, 4,000 H3122 cells containing ALK enzyme were distributed in each well of a 96 well plate together with 100 μl of DMEM (Dulbecco's Modified Eagle's Medium). One day later, the compound of the present invention was added to each well at different concentrations of […]. DMSO (dimethylsulfoxide) was added to the well that was not loaded with the compound by the same amount as the compound. Three days after the addition of the compound, DMEM was eliminated. 10% TCA (trichloroacetic acid) was added to fix the cells. The wells were washed with running water three times and the live cells were stained with SRB solution (1 sulphorodamine B). Then, OD was measured to calculate the population of the live cells.

[2] = test system: H2228 cells; test: cells; settings: Homo sapiens, NCI-H2228, 72 h
[3] = test system: Ba/F3 EML4-ALK WT cells; test: cells; type: cell-based, rodent; settings: read-out: Ba/F3 EML-ALK WT (IC50 μM)
[4] = Homo sapiens, NCI-H3122, 72 h, H3122 cells, three days, SRB
[5] = read-out: Cytotoxicity H2228 (GI50 μM), H2228 cells, three days, SRB

In the case of `COc1ccc(CCNC(C)C)cc1Nc1ncc(Cl)c(Nc2ccccc2S(=O)(=O)C(C)C)n1` [Example 15, 5-chloro-N2-(5-(2-(isopropylamino)ethyl)-2-methoxyphenyl)-N4-(2-(isopropylsulfonyl)phenyl)pyrimidine-2,4-diamine], the GI50 [1, 4] was 1.1 µM and the GI50 [2, 5] was 0.78 µM.

In the case of `CCNC(=O)NCCc1ccc(OC)c(Nc2ncc(Cl)c(Nc3ccccc3S(=O)(=O)C(C)C)n2)c1` [Example 16, 1-(3-(5-chloro-4-(2-(isopropylsulfonyl)phenylamino)pyrimidine-2-ylamino)-4-methoxyphenethyl)-3-ethylurea], the GI50 [1, 4] was 0.41 µM and the GI50 [2, 5] was 0.52 µM.

`COc1ccc(CCNC(=O)NC2CCCCC2)cc1Nc1ncc(Cl)c(Nc2ccccc2S(=O)(=O)C(C)C)n1` [Example 17, 1-(3-(5-chloro-4-(2-(isopropylsulfonyl)phenylamino)pyrimidine-2-ylamino)-4-methoxyphenethyl)-3-cyclohexylurea] gave a GI50 [1, 4] of 0.88 µM and a GI50 [2, 5] of 2.3 µM.

Compound `COc1ccc(CCNC(=O)Nc2ccccc2)cc1Nc1ncc(Cl)c(Nc2ccccc2S(=O)(=O)C(C)C)n1` [Example 18, 1-(3-(5-chloro-4-(2-(isopropylsulfonyl)phenylamino)pyrimidine-2-ylamino)-4-methoxyphenethyl)-3-phenylurea] has a GI50 [1, 4] of 3.6 µM and a GI50 [2, 5] of 4.9 µM.

Compound `CNC(=S)NCCc1ccc(OC)c(Nc2ncc(Cl)c(Nc3ccccc3S(=O)(=O)C(C)C)n2)c1` [Example 19, 1-(3-(5-chloro-4-(2-(isopropylsulfonyl)phenylamino)pyrimidine-2-ylamino)-4-methoxyphenethyl)-3-methylthiourea] has a GI50 [1, 4] of 1.1 µM and a GI50 [2, 5] of 10 µM.

For `COc1ccc(CCNC(=S)NCc2ccccc2)cc1Nc1ncc(Cl)c(Nc2ccccc2S(=O)(=O)C(C)C)n1` [Example 20, 1-benzyl-3-(3-(5-chloro-4-(2-(isopropylsulfonyl)phenylamino)pyrimidine-2-ylamino)-4-methoxyphenethyl)thiourea], the GI50 [1, 4] was 0.31 µM and the GI50 [2, 5] was 0.42 µM.

`COc1ccc(CCN2CCCCC2)cc1Nc1ncc(Cl)c(Nc2ccccc2S(=O)(=O)C(C)C)n1` [Example 21, 5-chloro-N4-(2-(isopropylsulfonyl)phenyl)-N2-(2-methoxy-5-(2-(piperidine-1-yl)ethyl)phenyl)pyrimidine-2,4-diamine] was tested, and the GI50 [1] was 0.06 µM, the GI50 ([1]; Homo sapiens, NCI-H3122, 72 h) was no more than 0.1 µM and the GI50 ([2]; read-out: Cytotoxicity H2228 (GI50 μM)) was 0.08 µM.

`COc1ccc(CCN2CCOCC2)cc1Nc1ncc(Cl)c(Nc2ccccc2S(=O)(=O)C(C)C)n1` [Example 22, 5-chloro-N4-(2-(isopropylsulfonyl)phenyl)-N2-(2-methoxy-5-(2-morpholinoethyl)phenyl)pyrimidine-2,4-diamine] gave a GI50 [1, 4] of 0.27 µM and a GI50 [2, 5] of 0.46 µM.

With `CCNC(=S)NCCc1ccc(OC)c(Nc2ncc(Cl)c(Nc3ccccc3S(=O)(=O)C(C)C)n2)c1` [Example 23, 1-(3-(5-chloro-4-(2-(isopropylsulfonyl)phenylamino)pyrimidine-2-ylamino)-4-methoxyphenethyl)-3-ethylthiourea] the GI50 [1, 4] was 1.4 µM and the GI50 [2, 5] was 2.5 µM.

`COc1ccc(CCNc2ncccn2)cc1Nc1ncc(Cl)c(Nc2ccccc2S(=O)(=O)C(C)C)n1` [Example 25, 5-chloro-N4-(2-(isopropylsulfonyl)phenyl)-N2-(2-methoxy-5-(2-(pyrimidine-2-ylamino)ethyl)phenyl)pyrimidine-2,4-diamine] gave a GI50 [1, 4] of 1.3 µM and a GI50 [2, 5] of 1.5 µM.

With `COC(=O)CNCCc1ccc(OC)c(Nc2ncc(Cl)c(Nc3ccccc3S(=O)(=O)C(C)C)n2)c1` [Example 26, methyl 2-(3-(5-chloro-4-(2-(isopropylsulfonyl)phenylamino)pyrimidine-2-ylamino)-4-methoxyphenethylamino)acetate] the GI50 [1, 4] was 0.14 µM and the GI50 [2, 5] was 0.42 µM.

In the case of `COc1ccc(CCNCC(=O)O)cc1Nc1ncc(Cl)c(Nc2ccccc2S(=O)(=O)C(C)C)n1` [Example 27, 2-(3-(5-chloro-4-(2-(isopropylsulfonyl)phenylamino)pyrimidine-2-ylamino)-4-methoxyphenethylamino)acetic acid], the GI50 [1, 4] was 0.42 µM and the GI50 [2, 5] was 0.51 µM.

In the case of `COc1ccc(CNC(=O)C(F)(F)F)cc1Nc1ncc(Cl)c(Nc2ccccc2S(=O)(=O)C(C)C)n1` [Example 28, N-(3-((5-chloro-4-((2-(isopropylsulfonyl)phenyl)amino)pyrimidine-2-yl)amino)-4-methoxybenzyl)-2,2,2-trifluoroacetamide], the GI50 [1, 4] was 0.82 µM and the GI50 [2, 5] was 0.98 µM.

`COc1ccc(CN)cc1Nc1ncc(Cl)c(Nc2ccccc2S(=O)(=O)C(C)C)n1` [Example 29, N2-(5-(aminomethyl)-2-methoxyphenyl)-5-chloro-N4-(2-(isopropylsulfonyl)phenyl)pyrimidine-2,4-diamine] was tested, and the GI50 [1, 4] was 0.1 µM and the GI50 [2, 5] was 0.14 µM.

In the case of `COc1ccc(CCNC(=O)C(F)(F)F)cc1Nc1ncc(Cl)c(Nc2ccccc2S(=O)(=O)C(C)C)n1` [Example 30, N-(3-(5-chloro-4-(2-(isopropylsulfonyl)phenylamino)pyrimidine-2-ylamino)-4-methoxyphenethyl)-2,2,2-trifluoroacetamide], the GI50 [1, 4] was 0.48 µM and the GI50 [2, 5] was 0.76 µM.

For `CC(C)Oc1ccc(CCN)cc1Nc1ncc(Cl)c(Nc2ccccc2S(=O)(=O)C(C)C)n1` [Example 31, N2-(5-(2-aminoethyl)-2-isopropoxyphenyl)-5-chloro-N4-(2-(isopropylsulfonyl)phenyl)pyrimidine-2,4-diamine], the GI50 [1, 4] was 0.7 µM and the GI50 [2, 5] was 0.51 µM.

In the case of `COc1ccc(CCN)cc1Nc1ncc(Cl)c(Nc2ccc(F)cc2S(=O)(=O)C(C)C)n1` [Example 32, N2-(5-(2-aminoethyl)-2-methoxyphenyl)-5-chloro-N4-(4-fluoro-2-(isopropylsulfonyl)phenyl)pyrimidine-2,4-diamine], the GI50 [1, 4] was 0.71 µM and the GI50 [2, 5] was 0.64 µM.

`COc1ccc(CCN)cc1Nc1ncc(Cl)c(Nc2cc(F)ccc2S(=O)(=O)C(C)C)n1` [Example 33, N2-(5-(2-aminoethyl)-2-methoxyphenyl)-5-chloro-N4-(5-fluoro-2-(isopropylsulfonyl)phenyl)pyrimidine-2,4-diaminehydrochloride] showed a GI50 ([1]; H3122 cells, three days, SRB) of 10 µM and a GI50 [2, 5] of 10 µM.

Work on `COc1ccc(CCN)cc1Nc1ncc(Cl)c(Nc2c(F)cccc2S(=O)(=O)C(C)C)n1` [Example 34, N2-(5-(2-aminoethyl)-2-methoxyphenyl)-5-chloro-N4-(2-fluoro-6-(isopropylsulfonyl)phenyl)pyrimidine-2,4-diaminehydrochloride] yielded a GI50 [1, 4] of 2.2 µM and a GI50 [2, 5] of 2.3 µM.

Work on `COc1ccc(C(C)(C)CN)cc1Nc1ncc(Cl)c(Nc2ccccc2S(=O)(=O)C(C)C)n1` [Example 35, N2-(5-(1-amino-2-methylpropane-2-yl)-2-methoxyphenyl)-5-chloro-N4-(2-(isopropylsulfonyl)phenyl)pyrimidine-2,4-diamine] yielded a GI50 [1, 4] of 1.6 µM and a GI50 [2, 5] of 1.6 µM.

`COc1ccc(C(C)(C)CN)cc1Nc1ncc(Cl)c(Nc2ccc(F)cc2S(=O)(=O)C(C)C)n1` [Example 36, N2-(5-(1-amino-2-methylpropane-2-yl)-2-methoxyphenyl)-5-chloro-N4-(4-fluoro-2-(isopropylsulfonyl)phenyl)pyrimidine-2,4-diamine] gave a GI50 ([1]; H3122 cells, three days, SRB) of 10 µM and a GI50 [2, 5] of 10 µM.

Work on `COc1ccc(C(C)(C)CN)cc1Nc1ncc(Cl)c(Nc2cc(F)ccc2S(=O)(=O)C(C)C)n1` [Example 37, N2-(5-(1-amino-2-methylpropane-2-yl)-2-methoxyphenyl)-5-chloro-N4-(5-fluoro-2-(isopropylsulfonyl)phenyl)pyrimidine-2,4-diamine] yielded a GI50 ([1]; H3122 cells, three days, SRB) of 10 µM and a GI50 [2, 5] of 10 µM.

`COc1ccc(C(C)(C)CN)cc1Nc1ncc(Cl)c(Nc2c(F)cccc2S(=O)(=O)C(C)C)n1` [Example 38, N2-(5-(1-amino-2-methylpropane-2-yl)-2-methoxyphenyl)-5-chloro-N4-(2-fluoro-6-(isopropylsulfonyl)phenyl)pyrimidine-2,4-diamine] gave a GI50 ([1]; H3122 cells, three days, SRB) of 10 µM and a GI50 [2, 5] of 10 µM.

`COc1cc(CC#N)c(C)cc1Nc1ncc(Cl)c(Nc2ccccc2S(=O)(=O)C(C)C)n1` [Example 53, 2-(4-((5-chloro-4-((2-(isopropylsulfonyl)phenyl)amino)pyrimidine-2-yl)amino)-5-methoxy-2-methylphenyl)acetonitrile] was tested, and the GI50 [1, 4] was 0.074 µM, the IC50 ([3]; Ba/F3 EML4-ALK) was no more than 0.1 µM and the IC50 [3] was 0.061 µM.

Work on `COc1cc(C(C)(C)C#N)c(C)cc1Nc1ncc(Cl)c(Nc2ccccc2S(=O)(=O)C(C)C)n1` [Example 54, 2-(4-((5-chloro-4-((2-(isopropylsulfonyl)phenyl)amino)pyrimidine-2-yl)amino)-5-methoxy-2-methylphenyl)-2-methylpropanenitrile] yielded a GI50 [1, 4] of 0.25 µM and an IC50 ([3]; Ba/F3 EML4-ALK) of 0.25 µM.

With `COc1cc(C(C)(C)NC=O)c(C)cc1Nc1ncc(Cl)c(Nc2ccccc2S(=O)(=O)C(C)C)n1` [Example 61, N-(2-(4-((5-chloro-4-((2-(isopropylsulfonyl)phenyl)amino)pyrimidine-2-yl)amino)-5-methoxy-2-methylphenyl)propane-2-yl)formamide] the GI50 [1, 4] was 0.052 µM and the IC50 ([3]; Ba/F3 EML4-ALK) was 0.024 µM.

`COc1cc(-c2ccccc2)c(CCN)cc1Nc1ncc(Cl)c(Nc2ccccc2S(=O)(=O)C(C)C)n1` [Example 67] was tested, and the GI50 [1, 4] was 0.23 µM and the IC50 ([3]; Ba/F3 EML4-ALK) was 0.11 µM.

With `COc1cc(CNC=O)c(C)cc1Nc1ncc(Cl)c(Nc2ccccc2S(=O)(=O)C(C)C)n1` [Example 71, N-(4-((5-chloro-4-((2-(isopropylsulfonyl)phenyl)amino)pyrimidine-2-yl)amino)-5-methoxy-2-methylbenzyl)formamide] the IC50 ([3]; Ba/F3 EML4-ALK) was 0.015 µM.
